Details: for log10 biotransformation half-life (days) / log10 BCF: fish

Row | Compound | boiling point | melting point | other results
1 | COC(=O)CCl | 130 °C | -32.1 °C | log10 vapour pressure (mmHg): 0.882; ready biodegradability: readily biodegradable
2 | CC(CC(C)(C)O)OC(O)C(Cl)(Cl)Cl (stereo unspecified) | – | 103 °C | –
3 | C#CCCCCCCCC#C | – | -17 °C | –
4 | CCCCCCCCCCCCCCCCCCCC(=O)O | 328 °C | 75.4 °C | log10 vapour pressure (mmHg): -8.74
5 | C#CC1(OC(N)=O)CCCCC1 | – | 96 °C | ready biodegradability: readily biodegradable
6 | CCc1c(C)cccc1C | 190 °C | -16.2 °C | log10 vapour pressure (mmHg): -0.132
7 | CCC1(CC)COC(=O)NC1=O | – | 97.5 °C | –
8 | CN1CCC(OC(c2ccccc2)c2ccccc2)CC1.Cl | – | 204 °C | –
9 | ClC(Cl)(Cl)C1CO1 (stereo unspecified) | 149 °C | – | –
10 | CC1CN1 (stereo unspecified) | 67 °C | -65 °C | log10 vapour pressure (mmHg): 2.15
11 | CCCCc1cccnc1 | 206 °C | – | –
12 | Oc1c(Br)c(Br)c(O)c(Br)c1Br | – | 244 °C | –
13 | CCC(=O)OCC1CCCO1 (stereo unspecified) | 206 °C | – | –
14 | CCCC=CCCCCC | 171 °C | – | –
15 | CCCCC(=O)CC | 147 °C | -39 °C | log10 vapour pressure (mmHg): 0.415
16 | Clc1ccc(-c2ccc(Cl)c(Cl)c2)c(Cl)c1 | – | – | log10 Henry constant (atm·m³/mol): -3.92; log10 Koa: 9.02; log10 vapour pressure (mmHg): -4.33; log10 biotransformation half-life (days): 2.07
17 | CC(=O)N1CCOCC1 | – | 14.5 °C | –
18 | O=S(=O)(c1ccc(Cl)cc1)c1cc(Cl)c(Cl)cc1Cl | – | 147 °C | log10 vapour pressure (mmHg): -9.62; ready biodegradability: not readily biodegradable
19 | CC(C)C1CC1 | 58.3 °C | -113 °C | –
20 | CCO[SiH](OCC)OCC | 134 °C | – | –
21 | CC(N)CCN (stereo unspecified) | 140 °C | – | –
22 | O=C(O)c1ccccc1C(=O)O | – | – | log10 Koc (L/kg): 1.07; log10 vapour pressure (mmHg): -6.2; ready biodegradability: readily biodegradable
23 | O=Cc1ccccc1O | 197 °C | -7 °C | log10 vapour pressure (mmHg): -0.227
24 | Cc1cc(Br)cc(Br)c1O | – | 58 °C | –

Row | Compound | boiling point | melting point | other results
25 | C[C@]12C[C@@H](O)[C@H]3[C@@H](CC[C@]4(O)C[C@@H](O)C[C@@H](O)[C@]34CO)[C@@]1(O)CC[C@@H]2C1=CC(=O)OC1 | – | 236 °C | –
26 | NS(=O)(=O)c1ccc(CCCO)cc1 | – | 95.5 °C | –
27 | Cc1ccc2nccnc2c1 | 249 °C | 218 °C | –
28 | O=C(O)/C=C/c1ccccc1C(F)(F)F | – | 206 °C | –
29 | Cc1cc(C)c2c(c1)CC(C)(C)CC2 | – | – | log10 biotransformation half-life (days): 0.32
30 | O=C(O)Cc1c(-c2ccccc2)c(-c2ccccc2)nn1-c1ccccc1 | – | 200 °C | –
31 | CC(=O)O[C@@H]1CC2CCC1(C)C2(C)C (stereo partly specified) | 221 °C | 29 °C | log10 vapour pressure (mmHg): -0.642
32 | CC(C)S | 52.5 °C | -130 °C | log10 vapour pressure (mmHg): 2.44
33 | CNCCc1c[nH]c2ccccc12 | – | 88 °C | –
34 | CCCCC(CC)COC(=O)CC(C(=O)OCC(CC)CCCC)S(=O)(=O)O (stereo unspecified) | – | – | log10 BCF: 0.97
35 | Nc1ccc(F)c([N+](=O)[O-])c1 | – | 97.5 °C | –
36 | O=C(Cl)c1ccco1 | 173 °C | -2 °C | –
37 | CC(C)(O)CCl | 128 °C | -20 °C | –
38 | CC(Br)C(=O)O (stereo unspecified) | 203 °C | – | –
39 | COc1c(OC)c(OC(C)=O)c2cc(Cl)ccc2c1OC(C)=O | – | 91.5 °C | –
40 | O=[N+]([O-])c1cccc(O)c1 | – | 96.8 °C | log10 Henry constant (atm·m³/mol): -8.7; ready biodegradability: readily biodegradable; log10 BCF: 1.4; log10 biotransformation half-life (days): -0.49
41 | Nc1ccc(Cl)nc1Cl | – | 119 °C | –
42 | OCc1ccc(Cl)cc1 | 235 °C | 75 °C | –
43 | FC(F)(F)C(F)(F)C(F)(F)C(F)(F)C(F)(F)C(F)(F)C(F)(F)C(F)(F)F | 106 °C | -42 °C | –
44 | CCC(C)OC (stereo unspecified) | 65 °C | -100 °C | log10 vapour pressure (mmHg): 2.32
45 | CC[C@]1(O)CC[C@H]2[C@@H]3CCC4=CC(=O)CC[C@@H]4[C@H]3CC[C@@]21C | – | 140 °C | –
46 | c1ccc([Se][Se]c2ccccc2)cc1 | – | 63.5 °C | –
47 | OC1CCCCCCCCCCC1 | – | 77.5 °C | log10 Henry constant (atm·m³/mol): -5.53
48 | O=C(O)CC(=O)O | – | – | ready biodegradability: readily biodegradable
